These results are taken from patent US20140135270A1, “MACROCYCLIC COMPOUNDS FOR INHIBITION OF INHIBITORS OF APOPTOSIS” (Ensemble Therapeutics Corp., priority 2012, published 2014).

The conditions of data set [1]: the molecule shown is the open-chain precursor, rcm bond, 38-membered ring, DCE, 70.0 °C.
For data set [2] the following is noted: the molecule shown is the open-chain precursor; rcm bond; 38-membered ring; Hoveyda-Grubbs II (2 portions); DCE; 2.34 mM; 70.0 °C.

Read-outs that look alike come from different tables or passages of the source.

In the case of “(S)-2-((S)-2-((2S,4S)-4-(4-((4-((S)-2-((S)-2-((2S,4S)-4-Allyl-1-((S)-2-4S)-2-((tert-butoxycarbonyl)(methyl)amino)propanamido)-3,3-dimethylbutanoyl)pyrrolidine-2-carboxamido)-3-(naphthalen-2-yl)propanamido)-3-(methylsulfonamido)-3-oxopropyl)phenoxy)methyl)-1H-1,2,3-triazol-1-yl)-1-((S)-2-((S)-2-((tert-butoxycarbonyl)(methyl)amino)propanamido)-3,3-dimethylbutanoyl)pyrrolidine-2-carboxamido)-3-(naphthalen-2-yl)propanamido)-3-(4-(allyloxy)phenyl)propanoic acid”, the ring closure, yield after HPLC in data set [1] (Grubbs II (2 portions), 2.9 mM) is 49%.

“(S)-tert-Butyl 2-((S)-2-((2S,4S)-4-(4-((4-((S)-2-((S)-2-((2S,4S)-4-allyl-1-((S)-2-((S)-2-((tert-butoxycarbonyl)(methyl)amino)propanamido)-3,3-dimethylbutanoyl)pyrrolidine-2-carboxamido)-3-(naphthalen-2-yl)propanamido)-3-(cyclopropanesulfonamido)-3-oxopropyl)phenoxy)methyl)-1H-1,2,3-triazol-1-yl)-1-((S)-2-((S)-2-((tert-butoxycarbonyl)(methyl)amino)propanamido)-3,3-dimethylbutanoyl)pyrrolidine-2-carboxamido)-3-(naphthalen-2-yl)propanamido)-3-(4-(allyloxy)phenyl)propanoate”: the ring closure, yield after HPLC in data set [1] (Hoveyda-Grubbs II (10 mol%), 3.5 mM) came to 75%.

With “(S)-tert-Butyl 2-((S)-2-((2S,4S)-4-allyl-1-((S)-2-((S)-2-((tert-butoxycarbonyl)(methyl)amino)propanamido)-3,3-dimethylbutanoyl)pyrrolidine-2-carboxamido)-3-(naphthalen-2-yl)propanamido)-3-(4-((1-((3S,5S)-5-(((S)-1-(((S)-2-(4-(allyloxy)phenyl)-1-(5-oxo-4,5-dihydro-1,3,4-oxadiazol-2-yl)ethyl)amino)-3-(naphthalen-2-yl)-1-oxopropan-2-yl)carbamoyl)-1-((S)-2-((S)-2-((tert-butoxycarbonyl)(methyl)amino)propanamido)-3,3-dimethylbutanoyl)pyrrolidin-3-yl)-1H-1,2,3-triazol-4-yl)methoxy)phenyl)propanoate”, in data set [1] (Hoveyda-Grubbs II (10 mol%), 5.2 mM), the ring closure, yield after HPLC worked out at 52%.

The substance “(S)-tert-Butyl 2-((S)-2-((2S,4S)-4-allyl-1-((S)-2-((S)-2-((tert-butoxycarbonyl)(methyl)amino)propanamido)-3,3-dimethylbutanoyl)pyrrolidine-2-carboxamido)-3-(naphthalen-2-yl)propanamido)-3-(4-((1-((3R,5S)-5-(((S)-1-(((S)-2-(4-(allyloxy)phenyl)-1-(1-trityl-1H-tetrazol-5-yl)ethyl)amino)-3-(naphthalen-2-yl)-1-oxopropan-2-yl)carbamoyl)-1-((S)-2-((S)-2-((tert-butoxycarbonyl)(methyl)amino)propanamido)-3,3-dimethylbutanoyl)pyrrolidin-3-yl)-1H-1,2,3-triazol-4-yl)methoxy)phenyl)propanoate” had a ring closure, isolated yield in data set [2] of 48%.
